target: T1, 5-HT transporter (Rattus norvegicus, UniProt P31652); test: 5-HT uptake inhibition in rat brain synaptosomes (medulla and pons); assay type: biochemical
T1 construct: from tissue; host or cells: rat medulla and pons synaptosomes (P2 fraction)
Excerpt: (§1) I. Method for Determining Noradrenalin and 5-HT Uptake Inhibition:
(§2) Synaptosomes from rat brain regions are freshly isolated for in vitro studies, as described in the publication “The isolation of nerve endings from brain” by E. G. Gray and V. P. Whittaker, J. Anatomy 96, pages 79-88, 1962. The corresponding literature description is hereby introduced as a reference and is deemed to be part of the disclosure.
(§3) The tissue (hypothalamus for the determination of noradrenalin uptake inhibition and medulla and pons for the determination of 5-HT uptake inhibition) is homogenised in ice-cooled 0.32 M sucrose (100 mg of tissue/1 mL) in a glass homogeniser with Teflon pestle using five complete up and down strokes at 840 revolutions/minute.
(§4) The homogenate is centrifuged at 4° C. for 10 minutes at 1000 g. After subsequent centrifugation at 17000 g for 55 minutes, the synaptosomes (P2 fraction) are obtained, which are resuspended in 0.32 M […] (0.5 mL/100 mg of original weight).
(§5) The particular uptake is measured in a 96-well microtitre plate. The volume is 250 μl and the incubation proceeds at room temperature (approx. 20-25° C.) under an O2 atmosphere.
(§6) The incubation time is 7.5 minutes for [^3H]-NA and 5 minutes for [^3H]-5-HT.
(§7) The 96 samples are then filtered through a Unifilter GF/B microtitre plate (Packard) and washed with 200 mL of incubated buffer using a “Brabdel MPXRI-96T Cell-Harvester”. The Unifilter GF/B plate is dried for 1 hour at 55° C. The plate is then sealed with a Back seal (Packard) and 35 μl of scintillation fluid are added per well (Ultima Gold, Packard). After sealing with a top seal (Packard) and establishing an equilibrium (around 5 hours), radioactivity is determined in a “Trilux 1450 Microbeta” (Wallac).
(§8) The quantity of protein used in the above determination corresponds to the values known from the literature, as for example described in “Protein measurement with the folin phenol reagent”, Lowry et al., J. Biol. Chem., 193, 265-275, 1951.
(§9) A detailed description of the method may additionally be found in the literature, for example in M. Ch. Frink, H.-H. Hennies, W. Engelberger, M. Haurand and B. Wilffert (1996) Arzneim.-Forsch./Drug Res. 46 (III), 11, 1029-1036.
(§10) The corresponding literature descriptions are hereby introduced in each case as a reference and are deemed to be part of the present disclosure.
(§11) The following characteristics were determined for the NA or 5-HT transporter: […]

T1 sequence (P31652 whole entry): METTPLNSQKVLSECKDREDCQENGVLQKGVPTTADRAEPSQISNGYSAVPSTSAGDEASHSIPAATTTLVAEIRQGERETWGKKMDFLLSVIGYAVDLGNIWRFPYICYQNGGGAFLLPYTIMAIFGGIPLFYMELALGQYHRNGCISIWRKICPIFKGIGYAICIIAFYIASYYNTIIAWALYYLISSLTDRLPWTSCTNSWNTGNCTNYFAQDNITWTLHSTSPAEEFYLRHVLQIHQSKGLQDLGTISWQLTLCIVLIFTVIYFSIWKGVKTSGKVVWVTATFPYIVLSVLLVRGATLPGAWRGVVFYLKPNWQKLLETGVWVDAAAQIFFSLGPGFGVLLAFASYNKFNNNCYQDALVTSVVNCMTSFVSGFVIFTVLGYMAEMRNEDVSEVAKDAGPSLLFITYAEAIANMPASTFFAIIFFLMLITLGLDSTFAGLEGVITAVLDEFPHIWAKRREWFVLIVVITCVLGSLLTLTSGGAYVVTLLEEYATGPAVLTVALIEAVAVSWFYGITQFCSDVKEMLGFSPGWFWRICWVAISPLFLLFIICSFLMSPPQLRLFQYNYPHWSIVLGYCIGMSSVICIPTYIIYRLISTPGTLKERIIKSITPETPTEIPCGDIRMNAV

SMILES | 5-HT uptake, rat, 1 μM, % inhibition [%] | inhibition at 1 µM [%]
O=C(Nc1ncc2c(n1)CCN(C(=O)c1ccc3ccccc3c1)C2)c1ccc(Cl)cc1 [Example 69] | 70 | 
O=C(Nc1ncc2c(n1)CCN(S(=O)(=O)c1ccc(Cl)cc1)C2)c1ccc(Cl)c(Cl)c1 [Example 71, 3,4-dichloro-N-[6-(4-chloro-benzenesulfonyl)-5,6,7,8-tetrahydro-pyrido[4,3-d]pyrimidin-2-yl]-benzamide] |  | 47
CCc1ccc(C(=O)Nc2ncc3c(n2)CCN(C(=O)c2ccc(-n4cccn4)cc2)C3)cc1 [Example 74, 4-ethyl-N-[6-(4-pyrazol-1-yl-benzoyl)-5,6,7,8-tetrahydro-pyrido[4,3-d]pyrimidin-2-yl]-benzamide] |  | 54
CC(C)(C)c1ccc(C(=O)Nc2ncc3c(n2)CCN(S(=O)(=O)c2ccc([N+](=O)[O-])cc2)C3)cc1 [Example 83, 4-tert-butyl-N-[6-(4-nitro-benzenesulfonyl)-5,6,7,8-tetrahydro-pyrido[4,3-d]pyrimidin-2-yl]-benzamide] |  | 39
O=C(NC1CCc2nc(NC(=O)c3cccs3)ncc2C1)c1cc(F)cc(F)c1 (centres unmarked) [Example 97, thiophene-2-carboxylic acid [6-(3,5-difluoro-benzoylamino)-5,6,7,8-tetrahydro-quinazolin-2-yl]-amide] |  | 30
CC1(C)C2CCC1(CS(=O)(=O)N1CCc3nc(NC(=O)c4cccc(F)c4)ncc3C1)C(=O)C2 (centres unmarked) [Example 102, N-[6-(7,7-dimethyl-2-oxo-bicyclo[2.2.1]hept-1-ylmethanesulfonyl)-5,6,7,8-tetrahydro-pyrido[4,3-d]pyrimidin-2-yl]-3-fluoro-benzamide] |  | 63
O=C(Nc1ncc2c(n1)CCN(C(=O)c1cc(F)cc3c1OCOC3)C2)c1ccccc1C(F)(F)F [Example 103, N-[6-(6-fluoro-4H-benzo[1,3]dioxin-8-carbonyl)-5,6,7,8-tetrahydro-pyrido[4,3-d]pyrimidin-2-yl]-2-trifluoromethyl-benzamide] |  | 65
Cc1ccc(C(=O)Nc2ncc3c(n2)CCN(C(=O)c2ccc(SC(F)(F)F)cc2)C3)cc1 [Example 148, 4-methyl-N-[6-(4-trifluoromethylsulfanyl-benzoyl)-5,6,7,8-tetrahydro-pyrido[4,3-d]pyrimidin-2-yl]-benzamide] |  | 32
CC(C)(C)OC(=O)NCCC(=O)NC1CCc2nc(NC(=O)c3cccs3)ncc2C1 (centres unmarked) [Example 149, (2-{2-[(thiophene-2-carbonyl)-amino]-5,6,7,8-tetrahydro-quinazolin-6-ylcarbamoyl}-ethyl)-carbamic acid tert-butyl ester] |  | 32
Cc1ccc([N+](=O)[O-])cc1S(=O)(=O)N1CCc2nc(NC(=O)c3ccccc3F)ncc2C1 [Example 150, 2-fluoro-N-[6-(2-methyl-5-nitro-benzenesulfonyl)-5,6,7,8-tetrahydro-pyrido[4,3-d]pyrimidin-2-yl]-benzamide] |  | 54
CCCS(=O)(=O)NC1CCc2nc(NC(=O)c3ccc(F)cc3)ncc2C1 (centres unmarked) [Example 160, 4-fluoro-N-[6-(propane-1-sulfonylamino)-5,6,7,8-tetrahydro-quinazolin-2-yl]-benzamide] |  | 40
CCCC(=O)Nc1ncc2c(n1)CCC(NS(=O)(=O)CC13CCC(CC1=O)C3(C)C)C2 (centres unmarked) [Example 162, N-[6-(7,7-dimethyl-2-oxo-bicyclo[2.2.1]hept-1-ylmethanesulfonylamino)-5,6,7,8-tetrahydro-quinazolin-2-yl]-butyramide] |  | 29
O=C(Nc1ncc2c(n1)CCC(NS(=O)(=O)Cc1ccccc1)C2)c1cccs1 (centres unmarked) [Example 165, thiophene-2-carboxylic acid (6-phenylmethanesulfonylamino-5,6,7,8-tetrahydro-quinazolin-2-yl)-amide] |  | 35
CCCC(=O)Nc1ncc2c(n1)CCC(NS(=O)(=O)c1ccc(C(C)(C)CC)cc1)C2 (centres unmarked) [Example 167, N-{6-[4-(1,1-dimethyl-propyl)-benzenesulfonylamino]-5,6,7,8-tetrahydro-quinazolin-2-yl}-butyramide] |  | 32
CCN(CC)C(=O)CCC(=O)N1CCc2nc(NC(=O)c3cc(Cl)cc(Cl)c3)ncc2C1 [Example 171, 3,5-dichloro-N-[6-(3-diethylcarbamoyl-propionyl)-5,6,7,8-tetrahydro-pyrido[4,3-d]pyrimidin-2-yl]-benzamide] |  | 32
CCc1ccc(C(=O)Nc2ncc3c(n2)CCN(C(=O)c2ccc4ncccc4c2)C3)cc1 [Example 173, 4-ethyl-N-[6-(quinoline-6-carbonyl)-5,6,7,8-tetrahydro-pyrido[4,3-d]pyrimidin-2-yl]-benzamide] |  | 69

target: T2, NA transporter (Rattus norvegicus, UniProt Q63380); test: Noradrenalin uptake inhibition in rat brain synaptosomes (hypothalamus); assay type: biochemical
T2 construct: from tissue; host or cells: rat hypothalamus synaptosomes (P2 fraction)
Excerpt: as §1, §2, §3, §4, §5, §6, §7, §8, §9, §10, §11

T2 sequence (Q63380 1-617): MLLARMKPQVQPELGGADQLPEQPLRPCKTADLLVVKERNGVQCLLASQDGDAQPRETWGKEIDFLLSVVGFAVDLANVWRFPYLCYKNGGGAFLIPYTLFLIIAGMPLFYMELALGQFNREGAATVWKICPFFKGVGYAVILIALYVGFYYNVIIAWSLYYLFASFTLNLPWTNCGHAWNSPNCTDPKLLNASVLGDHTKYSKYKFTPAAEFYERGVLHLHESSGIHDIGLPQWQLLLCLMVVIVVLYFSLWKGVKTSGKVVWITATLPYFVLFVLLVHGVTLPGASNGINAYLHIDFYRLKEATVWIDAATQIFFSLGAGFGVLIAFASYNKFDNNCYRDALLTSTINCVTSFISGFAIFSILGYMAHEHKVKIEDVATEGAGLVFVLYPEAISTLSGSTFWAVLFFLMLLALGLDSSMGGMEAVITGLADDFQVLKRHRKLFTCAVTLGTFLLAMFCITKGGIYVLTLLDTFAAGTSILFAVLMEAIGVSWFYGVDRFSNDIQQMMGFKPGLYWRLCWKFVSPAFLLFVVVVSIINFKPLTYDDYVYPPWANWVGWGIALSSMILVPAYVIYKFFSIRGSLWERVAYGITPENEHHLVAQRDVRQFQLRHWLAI

SMILES | NA uptake, rat, 10 μM, % inhibition [%] | inhibition at 10 µM [%]
O=C(Nc1ncc2c(n1)CCN(C(=O)c1ccc3ccccc3c1)C2)c1ccc(Cl)cc1 [Example 69] | 73 | 
O=C(Nc1ncc2c(n1)CCN(S(=O)(=O)c1ccc(Cl)cc1)C2)c1ccc(Cl)c(Cl)c1 [Example 71, 3,4-dichloro-N-[6-(4-chloro-benzenesulfonyl)-5,6,7,8-tetrahydro-pyrido[4,3-d]pyrimidin-2-yl]-benzamide] |  | 74
O=C(Nc1ncc2c(n1)CCN(S(=O)(=O)c1cccs1)C2)c1ccc(F)c(F)c1 [Example 72, 3,4-difluoro-N-[6-(thiophene-2-sulfonyl)-5,6,7,8-tetrahydro-pyrido[4,3-d]pyrimidin-2-yl]-benzamide] |  | 41
CCc1ccc(C(=O)Nc2ncc3c(n2)CCN(C(=O)c2ccc(-n4cccn4)cc2)C3)cc1 [Example 74, 4-ethyl-N-[6-(4-pyrazol-1-yl-benzoyl)-5,6,7,8-tetrahydro-pyrido[4,3-d]pyrimidin-2-yl]-benzamide] |  | 43
COc1cccc(C(=O)Nc2ncc3c(n2)CCN(C(=O)c2cccc(F)c2F)C3)c1 [Example 80, N-[6-(2,3-difluoro-benzoyl)-5,6,7,8-tetrahydro-pyrido[4,3-d]pyrimidin-2-yl]-3-methoxy-benzamide] |  | 54
CC(C)(C)c1ccc(C(=O)Nc2ncc3c(n2)CCN(S(=O)(=O)c2ccc([N+](=O)[O-])cc2)C3)cc1 [Example 83, 4-tert-butyl-N-[6-(4-nitro-benzenesulfonyl)-5,6,7,8-tetrahydro-pyrido[4,3-d]pyrimidin-2-yl]-benzamide] |  | 77
COc1ccccc1C(=O)Nc1ncc2c(n1)CCN(S(=O)(=O)c1ccc(Cl)s1)C2 [Example 86, N-[6-(5-chloro-thiophene-2-sulfonyl)-5,6,7,8-tetrahydro-pyrido[4,3-d]pyrimidin-2-yl]-2-methoxy-benzamide] |  | 32
CCOC(=O)CC(=O)N1CCc2nc(NC(=O)c3cccc(Cl)c3)ncc2C1 [Example 124, 3-[2-(3-chloro-benzoylamino)-7,8-dihydro-5H-pyrido[4,3-d]pyrimidin-6-yl]-3-oxo-propionic acid ethyl ester] |  | 65
CC(C(=O)N1CCc2nc(NC(=O)c3ccccc3)ncc2C1)c1ccc(Cl)cc1 (centres unmarked) [Example 176, N-{6-[2-(4-chloro-phenyl)-propionyl]-5,6,7,8-tetrahydro-pyrido[4,3-d]pyrimidin-2-yl}-benzamide] |  | 38
O=C(Nc1ncc2c(n1)CCN(C(=O)c1cccc(F)c1)C2)c1cccc2ccccc12 [Example 183, naphthalene-1-carboxylic acid [6-(3-fluoro-benzoyl)-5,6,7,8-tetrahydro-pyrido[4,3-d]pyrimidin-2-yl]-amide] |  | 63
COc1ccc(S(=O)(=O)N2CCc3nc(NC(=O)c4ccc(F)cc4)ncc3C2)cc1 [Example 185, 4-fluoro-N-[6-(4-methoxy-benzenesulfonyl)-5,6,7,8-tetrahydro-pyrido[4,3-d]pyrimidin-2-yl]-benzamide] |  | 36
COc1ccccc1C(=O)Nc1ncc2c(n1)CCN(C(=O)COCc1ccccc1)C2 [Example 195, N-[6-(2-benzyloxy-acetyl)-5,6,7,8-tetrahydro-pyrido[4,3-d]pyrimidin-2-yl]-2-methoxy-benzamide] |  | 31
COc1cccc(C(=O)Nc2ncc3c(n2)CCN(C(=O)c2cccc(OC(F)(F)F)c2)C3)c1 [Example 199, 3-methoxy-N-[6-(3-trifluoromethoxy-benzoyl)-5,6,7,8-tetrahydro-pyrido[4,3-d]pyrimidin-2-yl]-benzamide] |  | 52
